Measurements reported in patent US20250302862A1, “SMALL RNA DRUG FOR INHIBITING ACTIVITY OF CANCER CELLS” (Institute of Basic Medical Sciences Chinese Academy of …, priority 2022, published 2025).

Legend:
[1] = tested on: primary lung cancer Kras^LSL-G12Dp53^fl/fl (KP) mouse model; assay: Survival of mice with primary lung cancer; assay type: in vivo; settings: 10 nmol sRNA in sphingosine(d18:1) delivery system daily by gavage until death, vs NC group
Description: (§1) The mouse model of primary lung cancer was Kras^LSL-G12Dp53^fl/fl (KP).
(§2) Mice were weighed and assigned to the negative control group (NC group) and HQi-sRNA-2 group randomly. The NC group was the negative control, in which a sphingosine(d18:1)-NC-sRNA herbal medicine delivery system was constructed from NC-sRNA. The HQi-sRNA-2 group was the experimental group, in which a sphingosine(d18:1)-HQi-sRNA-2 herbal medicine delivery system was constructed from HQi-sRNA-2 and sphingosine(d18:1).
(§3) The herbal medicine delivery system was constructed by heating and mixing 10 nmol of sRNA, 100 ug of sphingosine(d18:1) and 300 ul of sterile enzyme-free water in a water bath at 90° C. for 15 minutes.
Each mouse with a uniform body weight was dosed by gavage. Each mouse was given 10 nmol of HQi-sRNA-2 mimic daily by gavage until death of the mouse.
The survival time of each mouse was recorded, the survival curve was plotted, and statistical analysis was performed.
(§4) Mice were weighed and assigned to the negative control group (NC group), MDM-sRNA-39 group and MDM-sRNA-163 group randomly. The NC group was the negative control, in which a sphingosine(d18:1)-NC-sRNA herbal medicine delivery system was constructed from NC-sRNA. The MDM-sRNA-39 group was an experimental group, in which a sphingosine(d18:1)-MDM-sRNA-39 herbal medicine delivery system was constructed from MDM-sRNA-39. The MDM-sRNA-163 group was an experimental group, in which a sphingosine(d18:1)-MDM-sRNA-163 herbal medicine delivery system was constructed from MDM-sRNA-163.

[2] = tested on: primary lung cancer Kras^LSL-G12Dp53^fl/fl (KP) mouse model; assay: Tumor burden of mice with primary lung cancer (HE lung sections); assay type: in vivo; settings: 10 nmol daily by gavage for one month, sphingosine(d18:1) delivery system, HE-stained left lung section, vs NC group
Description: as §1
as §2, with “HQi-sRNA-2.” for “HQi-sRNA-2 and sphingosine(d18:1).”
as §3
Each mouse with a uniform body weight was dosed by gavage. Each mouse was given 10 nmol of HQi-sRNA-2 mimic daily by gavage for one month.
The lungs of mice were collected to prepare pathological sections. The left lung was collected and sliced at the largest surface for every mouse, and stained with HE. The area of tumor in the whole pathological section was counted, the tumor burden was calculated, and statistical analysis was performed.
as §4

H460 cells = assay: Apoptosis detection (Annexin V / PI); assay type: cell-based, human; settings: 100 nmol/L, 48 h
Procedure: H460 cells with a cell density of more than 90% in 10 cm^2 dishes were plated in 12-well plates according to the cell growth rate, and transfected after 12 h, and the groups were divided as follows: • blank control group (4 wells): 200 uL of opti-MEM per well • negative control group (NC group) and experimental group (3 wells each): the system in each well was as follows • A. 100 uL of opti-MEM and 2 uL of iMax were mixed well for 5 min • B. 100 uL of opti-MEM and 5 uL of small RNA (final concentration 100 nmol/L) were mixed well • C. solution A and solution B were mixed well and let stand for 15 min, and then was added to each well at a 200 uL system • Note: 100 uL of nuclease-free water was added to 2 nmol of small RNA dry powder for dissolution at a storage concentration of 20 umol/L
The supernatant and cells were collected after 48 h and washed twice with pre-chilled PBS. The 4 tubes of cells in the blank control group were added respectively with: (1) 200 uL of 1× binding buffer; (2) 200 uL of 1× binding buffer and 5 uL of Annexin V stain; (3) 200 uL of 1× binding buffer and 5 uL of PI stain; (4) 200 uL of 1× binding buffer, 5 uL of Annexin V stain and 5 uL of PI stain. 200 uL of 1× binding buffer, 5 uL of Annexin V stain and 5 uL of PI stain were added to each tube of both the NC group and the experimental group. The mixture was mixed well and filtered through 300 mesh filters. The live cell population and the position of quadrant gate were selected according to the blank control group, and then the apoptosis of the NC group and the experimental group was detected. […]

Substance	survival of mice with primary lung cancer [1]	tumor burden of mice with primary lung cancer [2]	apoptosis (H460 cells)
HQi-sRNA-2: small RNA derived from Scutellaria baicalensis, sequence AUGGUUCGAUUCCGGAGAGGG (listed as RNA, chemistry not given here)	significantly prolonged	significantly reduced	promotes
MDM-sRNA-39: small RNA derived from Maytenus hookeri, sequence GGGAUUGUAGUUCAAUUGGUCAGAGCACC (listed as RNA, chemistry not given here)	significantly prolonged	significantly reduced	promotes
MDM-sRNA-163: small RNA derived from Maytenus hookeri, sequence UGACUCUAGUCCGACUUUGUGAAAUGACU (listed as RNA, chemistry not given here)	significantly prolonged	significantly reduced	promotes
